From the NIST ThermoML archive (doi:10.1016/j.jct.2013.07.026)
“And” between values parts separate entries of the source, which are not always exact repeats. Identical values can stand only once. ± gives the expanded uncertainty stated by the source.

Experiments:
[1] = molar enthalpy of vaporization or sublimation; settings: 298.15 K; Crystal; Static calorimetry
[2] = Crystal, Calculated from knudsen effusion weight loss

Row | SMILES | molar enthalpy [1] [kcal/mol] | vapor or sublimation pressure ([2]; 301.2 K) | vapor or sublimation pressure ([2]; 303.19 K) | vapor or sublimation pressure ([2]; 305.1 K) | vapor or sublimation pressure ([2]; 307.19 K) | vapor or sublimation pressure ([2]; 309.18 K) | vapor or sublimation pressure ([2]; 311.1 K) | vapor or sublimation pressure ([2]; 313.19 K) | vapor or sublimation pressure ([2]; 315.19 K) | vapor or sublimation pressure ([2]; 317.1 K) | vapor or sublimation pressure ([2]; 319.18 K) | vapor or sublimation pressure ([2]; 321.15 K) | vapor or sublimation pressure ([2]; 323.09 K)
1 | O=C(CCl)c1ccccc1 [2-chloroacetophenone] | 21 ± 0.406 |  |  |  |  |  |  |  |  |  |  |  | 
2 | O=C(CCl)c1ccc(Cl)cc1 [2,4'-dichloroacetophenone] |  | 8.5e-05 ± 4e-06 kPa and 7.6e-05 ± 4e-06 kPa and 7.9e-05 ± 4e-06 kPa | 9.9e-05 ± 5e-06 kPa and 0.000105 ± 5e-06 kPa and 0.000103 ± 5e-06 kPa | 0.000133 ± 7e-06 kPa and 0.000131 ± 7e-06 kPa and 0.000134 ± 7e-06 kPa | 0.000165 ± 8e-06 kPa and 0.000178 ± 9e-06 kPa | 0.000218 ± 1.1e-05 kPa and 0.000214 ± 1.1e-05 kPa and 0.000221 ± 1.1e-05 kPa | 0.00027 ± 1.4e-05 kPa and 0.000271 ± 1.4e-05 kPa and 0.000278 ± 1.4e-05 kPa | 0.000344 ± 1.7e-05 kPa and 0.000341 ± 1.7e-05 kPa and 0.000359 ± 1.8e-05 kPa | 0.000447 ± 2.2e-05 kPa and 0.000437 ± 2.2e-05 kPa and 0.000448 ± 2.2e-05 kPa | 0.000561 ± 2.8e-05 kPa and 0.000553 ± 2.8e-05 kPa and 0.000562 ± 2.8e-05 kPa | 0.000699 ± 3.5e-05 kPa and 0.000686 ± 3.4e-05 kPa and 0.000757 ± 3.8e-05 kPa | 0.000903 ± 4.5e-05 kPa and 0.000911 ± 4.6e-05 kPa and 0.000875 ± 4.4e-05 kPa | 0.001131 ± 0.00012 kPa and 0.001115 ± 0.00011 kPa and 0.001107 ± 0.00011 kPa
